In patent publication US10556920B2, “Phosphorus-containing heterocycles and a method for making and using” (University of Oregon, priority 2015, dated 2020):

Columns and labels:
Type in all cases: physicochemical
[1] = Fluorescence excitation/emission
Text: ^1H and ^13C NMR spectra were obtained on a Varian 300 MHz spectrometer (^1H: […], ^13C: […]), Inova 500 MHz spectrometer (^1H: 500.10 MHz, ^13C: 125.75 MHz) or Varian 600 MHz spectrometer (^1H: 599.98 MHz, ^13C: 150.87 MHz). Chemical shifts (6) are expressed in ppm using non-deuterated solvent present in the bulk deuterated solvent (CDCl3: ^1H 7.26 ppm, ^13C 77.16 ppm; (CD3)2SO: ^1H 2.5 ppm, ^13C 39.52 ppm). Solvents and reagents were used as purchased from suppliers, unless anhydrous conditions were employed, in which solvents were freshly distilled from sodium/benzophenone under N2 atmosphere (THF) or as purchased in sealed, DriSolv containers (pyridine). Triphenylphosphite was freshly distilled under vacuum before use. Mass spectra were acquired with a Waters LCT Premier ESI-MS in positive mode using acetone as a solvent. UV-Vis spectra were acquired with a Hewlett-Packard 8453 UV-Visible spectrophotometer equipped with a 250 nm cutoff filter. Fluorescence data was acquired with a Horiba Jobin-Yvon FluoroMax-4 fluorescence spectrophotometer. HPLC performed using a JAI Recycling Preparative HPLC (Model LC-9101) with a JAIGEL-1H preparative column.
The compounds gave fluorescence emissions similar to those of carbostyril. (3-Ph-carbostyril ex: 345 nm, em: 410 nm; II-3 ex: 354 nm, em: 427 nm).
The only scaffold which responded to the addition of acid was one containing a 2-pyridyl substituent, which directly corresponded to protonation of the pyridine. The N—H proton of the NH—P(OPh)=O functionality is fairly acidic, and easily removed via treatment with organic bases such as DBU. […] The fluorophore II-7 gave substitution patterns that were followed for both red-shift and quantum yield optimization of carbostyril fluorophores. Following the guidelines within the scaffold, with placement of electron donating groups in the 6- and 7-positions, and an electron-withdrawing group in the 3-position, yielded a fluorophore with an emission of 505 nm and a quantum yield of 45% in CHCl3.

[2] = Stability of phosphonimidate form toward hydrolysis/heat; conditions: 100° C. reaction conditions
Text: Disclosed herein is a synthetic approach to assemble the 2-λ^5-phosphaquinoline in one step from easily attainable starting materials. By treatment of a 2-ethynyl aniline (for example, accessible from Sonogashira cross-coupling with commercially available 2-iodoanilines) with triphenylphosphite, the disclosed compounds were synthesized in good to modest yields (Table 1). Typically, upon isolation and purification via hot recrystallization in ambient atmosphere, the phosphaquinoline partially hydrolyzed, yielding the phosphaquinolinone form and releasing phenol. However, the phosphonimidate form (A) appeared to be stable at room temperature. This reaction was tolerant to a variety of electron-rich and electron-poor arenes, as well as alkyl functionality attached at the ethynyl.
Except for compounds with a 2-pyridyl substituent, the phosphonimidate compounds tended to hydrolyze when heated in ambient atmosphere to give the phosphonamidate. If the reaction was performed rigorously water-free, and worked up with minimal exposure to ambient atmosphere, the phosphonimidate forms (I) can be isolated for all of the derivatives. […] This and stability of the phosphonimidate toward hydrolysis at room temperature lent credence to increased stability from delocalization within the heterocycle.

[3] = Dimerization in solution
Text: This corresponded to an energy of 1.5 kcal/mol for each H-bond, which was quite high compared to cis-amides such as pyrrolidone or caprolactam, who experience dimerization constants from 1-5 M^−1 in CHCl3. […] As a result, this dimer deviated from the trends previously reported, where each attractive interaction gave −1.88 kcal/mol of energy to ΔG, and each repulsive secondary interaction gave +0.74 kcal/mol. Following the same schema, the two repulsive secondary interactions in the present dimer yielded only +0.76 kcal/mol of destabilization, about half of what was expected.

[4] = TEA added, in CHCl3 (deprotonated N-H)

SMILES	fluorescence emission (em) ([1]; solvent not stated) [nm]	fluorescence excitation (ex) ([1]; solvent not stated) [nm]	fluorescence emission (em) ([1]; CHCl3, neutral form) [nm]	fluorescence emission (em) ([1]; MeCN) [nm]	other results
O=c1[nH]c2ccccc2cc1-c1ccccc1 [3-Ph-carbostyril, reference compound]	410	345	–	–	–
CCOC(=O)c1ccc(C2=Cc3ccccc3N=P2(Oc2ccccc2)Oc2ccccc2)cc1 [I-2, ethyl 4-(2,2-diphenoxy-2-λ^5-benzo[e][1,2]azaphosphinin-3-yl)benzoate]	–	–	–	–	stability under reaction conditions [2]: quite stable
N#Cc1ccc(C2=Cc3ccccc3NP2(=O)Oc2ccccc2)cc1 (centres unmarked) [II-1, 4-(2-oxido-2-phenoxy-1H-benzo[e][1,2]azaphosphinin-3-yl)benzonitrile]	–	–	430	450	energy for each H-bond ([3]; from dimerization constant in CDCl3): 1.5 kcal/mol; dimerization constant ([3]; in CDCl3): 133 ± 15 M⁻¹; fluorescence excitation (ex) ([1]; CHCl3, neutral form): 345 nm; fluorescence emission (em) [1, 4]: 542 nm; fluorescence excitation (ex) [1, 4]: 360 nm; Stokes shift ([1]; upon treatment with base (TEA) in CHCl3): 180 nm
O=P1(Oc2ccccc2)Nc2ccccc2C=C1c1ccccc1 (centres unmarked) [II-3, 2-phenoxy-3-phenyl-1H-benzo[e][1,2]azaphosphinine 2-oxide]	427	354	–	–	–
COc1ccc(C2=Cc3ccccc3NP2(=O)Oc2ccccc2)cc1 (centres unmarked) [II-4, 3-(4-methoxyphenyl)-2-phenoxy-1H-benzo[e][1,2]azaphosphinine 2-oxide]	–	–	411	411	–
N#Cc1ccc(C2=Cc3cc4c(cc3NP2(=O)Oc2ccccc2)OCO4)cc1 (centres unmarked) [II-7, 4-(2-oxido-2-phenoxy-1H-[1,3]dioxolo[4′,5′:4,5]benzo[1,2-e][1,2]azaphosphinin-3-yl)benzonitrile]	–	–	505	–	quantum yield ([1]; in CHCl3): 45%
